Test results as given in the supplement of paper PMC10307832.

Key:
Assay in all cases: relative viability (nuclei count vs DMSO), 5 days (fraction); higher = more cells survive
MK-8033 + Dasatinib = compound: Cn1cc(-c2cnc3ccc4ccc(CS(=O)(=O)NCc5ccccn5)cc4c(=O)c3c2)cn1 [MK-8033] + Cc1nc(Nc2ncc(C(=O)Nc3c(C)cccc3Cl)s2)cc(N2CCN(CCO)CC2)n1 [Dasatinib] (partner 0.075 µM)
In short: (§1)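 Dosing by pin tool came one day after lung cancer cell lines were seeded in 1536-well plates, using either one drug or a fixed anchor-drug dose plus five library-drug doses (not always all listed) in √10 steps. After 5 days, nuclei were counted on 4× images. Relative viability is treated-well nuclei count divided by vehicle-well nuclei count, and values are medians of duplicate plates.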

MK-8033 + Tozasertib = compound: Cn1cc(-c2cnc3ccc4ccc(CS(=O)(=O)NCc5ccccn5)cc4c(=O)c3c2)cn1 [MK-8033] + Cc1cc(Nc2cc(N3CCN(C)CC3)nc(Sc3ccc(NC(=O)C4CC4)cc3)n2)n[nH]1 [Tozasertib] (partner 0.1 µM)
In short: as §1

Irinotecan + Vorinostat = compound: CCc1c2c(nc3ccc(OC(=O)N4CCC(N5CCCCC5)CC4)cc13)-c1cc3c(c(=O)n1C2)COC(=O)[C@]3(O)CC [Irinotecan] + O=C(CCCCCCC(=O)Nc1ccccc1)NO [Vorinostat] (partner 1 µM)
In short: as §1

Irinotecan + Alpelisib = compound: CCc1c2c(nc3ccc(OC(=O)N4CCC(N5CCCCC5)CC4)cc13)-c1cc3c(c(=O)n1C2)COC(=O)[C@]3(O)CC [Irinotecan] + Cc1nc(NC(=O)N2CCC[C@H]2C(N)=O)sc1-c1ccnc(C(C)(C)C(F)(F)F)c1 [Alpelisib] (partner 2 µM)
In short: as §1

| Cell Line | relative viability (MK-8033 + Dasatinib; first compound 0.02 µM) | relative viability (MK-8033 + Dasatinib; first compound 0.06325 µM) | relative viability (MK-8033 + Dasatinib; first compound 0.2 µM) | relative viability (MK-8033 + Dasatinib; first compound 0.6325 µM) | relative viability (MK-8033 + Dasatinib; first compound 2 µM) | relative viability (MK-8033 + Tozasertib; first compound 0.02 µM) | relative viability (MK-8033 + Tozasertib; first compound 0.06325 µM) | relative viability (MK-8033 + Tozasertib; first compound 0.2 µM) | relative viability (MK-8033 + Tozasertib; first compound 0.6325 µM) | relative viability (MK-8033 + Tozasertib; first compound 2 µM) | relative viability (Irinotecan + Vorinostat; first compound 0.6325 µM) | relative viability (Irinotecan + Vorinostat; first compound 2 µM) | relative viability (Irinotecan + Vorinostat; first compound 6.325 µM) | relative viability (Irinotecan + Vorinostat; first compound 20 µM) | relative viability (Irinotecan + Alpelisib; first compound 0.6325 µM) | relative viability (Irinotecan + Alpelisib; first compound 2 µM) | relative viability (Irinotecan + Alpelisib; first compound 6.325 µM) | relative viability (Irinotecan + Alpelisib; first compound 20 µM) |
| --- | --- | --- | --- | --- | --- | --- | --- | --- | --- | --- | --- | --- | --- | --- | --- | --- | --- | --- |
| NCI-H522 | 0.776 | 0.696 | 0.815 | 1.07 | 0.818 | 0.606 | 0.477 | 0.53 | 0.496 | 0.599 | 0.734 | 0.727 | 0.59 | 0.65 |  |  |  |  |
| NCI-H358 | 0.15 | 0.149 | 0.198 | 0.163 | 0.175 | 0.0969 | 0.0932 | 0.1 | 0.0977 | 0.106 | 0.455 | 0.246 | 0.167 | 0.135 | 0.628 | 0.561 | 0.311 | 0.248 |
| NCI-H1755 | 0.41 | 0.382 | 0.415 | 0.421 | 0.443 | 0.552 | 0.473 | 0.536 | 0.537 | 0.536 | 0.606 | 0.7 | 0.448 | 0.385 | 0.822 | 0.434 | 0.292 | 0.363 |
| LCLC-103H | 0.516 | 0.518 | 0.406 | 0.434 | 0.537 | 0.489 | 0.556 | 0.438 | 0.55 | 0.461 | 0.449 | 0.554 | 0.623 | 0.563 | 0.812 | 0.345 | 0.33 | 0.368 |
| HOP-62 | 0.536 | 0.535 | 0.581 | 0.66 | 0.599 | 0.406 | 0.339 | 0.359 | 0.352 | 0.344 | 0.234 | 0.311 | 0.167 | 0.188 | 0.244 | 0.171 | 0.158 | 0.129 |
| HCC-78 | 0.55 |  | 0.335 | 0.355 | 0.491 | 0.482 |  | 0.414 | 1.83 | 0.404 | 0.56 | 0.322 | 0.291 | 0.288 | 0.38 | 0.248 | 0.195 | 0.211 |
| NCI-H650 | 0.491 | 0.446 | 0.471 | 0.386 | 0.489 | 0.701 | 0.598 | 0.706 | 0.827 | 0.679 | 0.329 | 0.303 | 0.134 | 0.203 | 0.889 | 0.432 | 0.229 | 0.323 |
| NCI-H1563 | 0.468 | 0.45 | 0.473 | 0.362 | 0.46 |  |  |  |  |  |  |  |  |  | 0.86 | 0.912 | 0.875 | 0.654 |
| ABC-1 | 0.735 | 0.434 | 0.501 | 0.491 | 0.61 | 0.207 | 0.123 | 0.155 | 0.174 | 0.154 |  | 0.566 | 0.405 | 0.348 |  | 0.654 | 0.439 | 0.362 |
| Calu-6 |  |  |  |  |  |  |  |  |  |  |  |  |  |  | 0.826 | 0.543 | 0.291 | 0.119 |
| EBC-1 |  |  |  |  |  |  |  |  |  |  |  |  |  |  | 0.621 | 0.387 | 0.385 | 0.161 |
| NCI-H520 | 0.193 | 0.187 | 0.211 | 0.221 | 0.168 | 0.408 | 0.453 | 0.433 | 0.485 | 0.469 | 0.442 | 0.394 | 0.278 | 0.162 | 0.751 | 0.733 | 0.282 | 0.203 |
| A549 |  |  |  |  |  |  |  |  |  |  |  |  |  |  | 0.776 | 0.642 | 0.207 | 0.0613 |
| NCI-H1648 |  |  |  |  |  |  | 0.404 | 0.405 |  | 0.426 | 0.379 | 0.423 | 0.355 | 0.279 |  |  |  |  |
| NCI-H1623 | 0.608 | 0.504 | 0.642 | 0.516 | 0.57 | 0.396 | 0.358 | 0.428 | 0.43 | 0.498 |  |  |  |  |  |  |  |  |
| ChaGo-K-1 | 0.603 | 0.588 | 0.527 | 0.66 | 0.641 | 0.216 | 0.227 | 0.224 | 0.218 | 0.206 | 0.443 | 0.326 | 0.268 | 0.243 |  |  |  |  |
| HCC-44 |  |  |  |  |  | 0.886 | 0.837 | 0.771 | 0.729 | 0.813 | 0.998 | 0.839 | 0.451 | 0.461 | 0.669 | 0.347 | 0.28 | 0.313 |
| NCI-H2342 | 0.329 | 0.277 | 0.35 | 0.33 | 0.352 | 0.571 | 0.475 | 0.485 | 0.377 | 0.53 | 0.955 | 0.911 | 0.836 | 0.356 |  |  |  |  |
| NCI-H1792 | 0.768 | 0.834 | 0.752 | 0.57 | 0.569 |  |  |  |  |  |  |  |  |  | 0.711 | 0.673 | 0.329 | 0.11 |
| IA-LM |  |  |  |  |  |  |  |  |  |  |  | 0.619 | 0.251 | 0.0877 | 0.614 | 0.408 | 0.189 | 0.0631 |
| NCI-H1650 | 0.27 | 0.254 | 0.275 | 0.325 | 0.272 | 0.395 | 0.325 | 0.395 | 0.352 | 0.276 | 0.518 | 0.349 | 0.351 | 0.162 |  |  |  |  |
| SW 900 | 0.378 | 0.394 | 0.476 | 0.907 | 0.424 | 0.583 | 0.645 | 0.51 | 0.615 | 0.341 |  | 0.564 | 0.333 | 0.373 |  |  |  |  |
| NCI-H1703 |  |  |  |  |  |  |  |  |  |  |  |  |  |  | 0.305 | 0.482 | 0.385 | 0.136 |
| NCI-H1299 |  |  |  |  |  |  |  |  |  |  |  |  |  |  | 0.919 | 0.918 | 0.801 | 0.36 |
